Test results taken from US9981960B2, “Pyrrolidine compound and application as melanocortin receptor agonist” (MITSUBISHI TANABE PHARMA CORPORATION, priority 2014, dated 2018).

Biological target: T1, Human MC1R (Homo sapiens, UniProt Q01726)
T1 construct: endogenous in cells; host or cells: human melanoma cell line HBL
Experiment: MCR agonist measurement (cAMP measurement), human MC1R agonist activity in human melanoma cell line HBL
Type: cell-based
Settings: HBL cells; for EC50: 37° C. for 30 minutes, intracellular cAMP by fluorescence method; for Human MC1R IA %: Intrinsic Activity, vehicle cAMP = 0%, αMSH at 10^-6 M = 100%
Description: (1) Method for Culturing Cells
Human MC1R agonist activity measurement was carried out by using human melanoma cell line HBL. Culture of HBL: F-10 Nutrient Mixture containing 10% FCS and Penicillin-streptomycin was used in the culture.
(2) cAMP Assay and Data Calculation
Each compound solution having each concentration was mixed with cAMP assay buffer (HBSS (Hank's Balanced Salt Solution) containing 10 mM HEPES and 0.1% BSA), and dispensed into 96 well plate. HBL was suspended in cAMP assay buffer containing 0.5 mM IBMX so that the concentrate became 5×10^4/mL, dispensed into the above 96 well plate, then mixed, left to stand at 37° C. for 30 minutes, and then the intracellular […] concentration was measured by fluorescence method using Envision (ex. 320 nm, em. 590 nm and 665 nm).

T1 sequence (Q01726 whole entry): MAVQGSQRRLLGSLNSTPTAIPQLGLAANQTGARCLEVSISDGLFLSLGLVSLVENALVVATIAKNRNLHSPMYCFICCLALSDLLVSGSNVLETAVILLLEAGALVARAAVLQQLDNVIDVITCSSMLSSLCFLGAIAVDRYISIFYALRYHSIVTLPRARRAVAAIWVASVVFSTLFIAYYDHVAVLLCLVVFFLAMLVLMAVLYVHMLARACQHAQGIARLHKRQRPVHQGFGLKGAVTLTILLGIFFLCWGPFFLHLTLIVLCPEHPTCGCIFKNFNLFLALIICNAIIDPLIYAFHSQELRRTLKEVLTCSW

Row | EC50 [nM] | Human MC1R IA % [%] | Compound
1 | 0.76 | 96 | COC[C@@H]1C[C@@H](c2ccc(C(F)(F)F)cc2N2CCC(C(=O)O)CC2)CN1C(=O)[C@]1(F)CN([C@H]2CC[C@H](C#N)CC2)C[C@H]1c1ccc(OC)cc1 [Example 143]
2 | 0.75 | 118 | CCO[C@H]1CC[C@H](N2C[C@@H](c3ccc(OC)cc3)[C@](OC)(C(=O)N3C[C@H](c4ccc(C(F)(F)F)cc4N4CCC(C(=O)O)CC4)C[C@H]3COC)C2)CC1 [Example 146]
3 | 3.6 | 93 | COc1ccc([C@@H]2CN([C@H]3CC[C@H](OC)CC3)C[C@@]2(F)C(=O)N2C[C@H](c3ccc(C(F)(F)F)cc3N3CCC(C(=O)O)CC3)[C@@H](F)C2)cc1 [Example 148]
4 | 1.1 | 85 | COC[C@@H]1C[C@@H](c2ccc(C(F)(F)F)cc2N2CCC(C(=O)O)CC2)CN1C(=O)[C@]1(OC)CN(C2CCCCCC2)C[C@H]1c1ccc(OC)cc1 [Example 154]
5 | 29 | 83 | COC[C@@]1(OC)CN(C(=O)[C@]2(F)CN([C@H]3CC[C@H](OC)CC3)C[C@H]2c2ccc(OC)cc2)C[C@@H]1c1ccc(C(F)(F)F)cc1N1CCC(C(=O)O)CC1 [Example 156]
6 | 0.67 | 106 | COC[C@@H]1C[C@@H](c2ccc(C(F)(F)F)cc2N2CCC(C(=O)O)CC2)CN1C(=O)[C@]1(OC)CN([C@H]2CC[C@H](OC(C)C)CC2)C[C@H]1c1ccc(OC)cc1 [Example 160]
7 | 20 | 36 | COc1ccc([C@@H]2CN(C3CCCC3)C[C@@]2(F)C(=O)N2CCC=C(c3ccc(C(F)(F)F)cc3N3CCC(C(=O)O)CC3)C2)cc1 [Example 163]
8 | 7.4 | 80 | COc1ccc([C@@H]2CN(C(C)(C)C)C[C@@]2(F)C(=O)N2CCC(c3ccc(C(F)(F)F)cc3[C@H]3C[C@H](C(=O)O)C3)CC2)cc1 [Example 177]
9 | 17 | 103 | COc1ccc([C@@H]2CN(C3CCN(C(CF)CF)CC3)C[C@@]2(F)C(=O)N2CCC(c3ccc(C(F)(F)F)cc3N3CCC(C(=O)O)CC3)CC2)cc1 [Example 193]
10 | 40 | 87 | COc1ccc([C@@H]2CN(C(C)(C)C)C[C@@]2(F)C(=O)N2CCC(c3ccc(Cl)cc3N3CCC(C(=O)O)CC3)CC2)cc1 [Example 195]
11 | 45 | 66 | COc1ccc([C@@H]2CN(C(C)(C)C)C[C@@]2(F)C(=O)N2CCC(c3ccc(C(F)F)cc3N3CCC(C(=O)O)CC3)CC2)cc1 [Example 198]
12 | 31 | 107 | COC[C@H]1CN(C(=O)[C@]2(F)CN(C3CCCC3)C[C@H]2c2ccc(OC)cc2)C[C@@H]1c1cc(F)c(F)cc1N1CCC(C(=O)O)CC1 [Example 201]
13 | 38 | 67 | COc1ccc([C@@H]2CN(C(C)(C)C)C[C@@]2(F)C(=O)N2CCC(c3ccc(C(F)(F)F)cc3N3CCC(N(C)C)CC3)CC2)cc1 [Example 205]
14 | 0.89 | 88 | COc1ccc([C@@H]2CN([C@H]3CC[C@H](OC)CC3)C[C@@]2(F)C(=O)N2CC[C@@H](c3ccc(C(F)(F)F)cc3N3CCC(C(=O)O)CC3)C2)cc1 [Example 213]
15 | 14 | 59 | COc1ccc([C@@H]2CN(C3CCOCC3)C[C@@]2(F)C(=O)N2CC[C@@H](c3ccc(C(F)(F)F)cc3N3CCC(C(=O)O)CC3)C2)cc1 [Example 215]
16 | 4.3 | 110 | COc1ccc([C@@H]2CN([C@H]3CC[C@H](OC)CC3)C[C@@]2(F)C(=O)N2CC[C@@H](c3ccc(F)cc3N3CCC(C(=O)O)CC3)C2)cc1 [Example 218]

Row | EC50 [nM] | Human MC1R IA % [%] | Compound
17 | 6.7 | 104 | COc1ccc([C@@H]2CN(C3CCN(C(CF)CF)CC3)C[C@@]2(F)C(=O)N2CC[C@@H](c3ccc(C(F)(F)F)cc3N3CCC(C(=O)O)CC3)C2)cc1 [Example 219]
18 | 11 | 109 | COc1ccc([C@@H]2CN(C(C)(C)C)C[C@@]2(F)C(=O)N2C[C@H](CO)[C@@H](c3ccc(C(F)(F)F)cc3N3CCC(C(=O)O)CC3)C2)cc1.Cl.Cl [Example 224, 1-{2-[(3S,4R)-1-{[(3R,4R)-1-tert-butyl-3-fluoro-4-(4-methoxyphenyl)pyrrolidin-3-yl]carbonyl}-4-(hydroxymethyl)pyrrolidin-3-yl]-5-(trifluoromethyl)phenyl}piperidine-4-carboxylic acid dihydrochloride]
19 | 47 | 132 | COc1ccc([C@@H]2CN(C(C)(C)C)C[C@@]2(F)C(=O)N2C[C@H](C(=O)N(C)C)[C@@H](c3ccc(C(F)(F)F)cc3N3CCC(C(=O)O)CC3)C2)cc1.Cl.Cl [Example 226, 1-{2-[(3S,4R)-1-{[(3R,4R)-1-tert-butyl-3-fluoro-4-(4-methoxyphenyl)pyrrolidin-3-yl]carbonyl}-4-(dimethylcarbamoyl)pyrrolidin-3-yl]-5-(trifluoromethyl)phenyl}piperidine-4-carboxylic acid dihydrochloride]
20 | 85 | 114 | COc1ccc([C@@H]2CN(C(C)(C)C)C[C@@]2(F)C(=O)N2C[C@H](c3ccc(C(F)(F)F)cc3N3CCC(C(=O)O)CC3)[C@@H](C#N)C2)cc1.Cl.Cl [Example 227, 1-{2-[(3S,4R)-1-{[(3R,4R)-1-tert-butyl-3-fluoro-4-(4-methoxyphenyl)pyrrolidin-3-yl]carbonyl}-4-cyanopyrrolidin-3-yl]-5-(trifluoromethyl)phenyl}piperidine-4-carboxylic acid dihydrochloride]
21 | 11 | 77 | COc1ccc([C@@H]2CN(C3CCCC3)C[C@@]2(F)C(=O)N2C[C@H](c3ccc(C(F)(F)F)cc3N3CCC(C(=O)O)CC3)[C@@H](C(C)(C)O)C2)cc1.Cl.Cl [Example 228, 1-{2-[(3S,4R)-1-{[(3R,4R)-1-cyclopentyl-3-fluoro-4-(4-methoxyphenyl)pyrrolidin-3-yl]carbonyl}-4-(2-hydroxypropan-2-yl)pyrrolidin-3-yl]-5-(trifluoromethyl)phenyl}piperidine-4-carboxylic acid dihydrochloride]
22 | 11 | 82 | CNC(=O)C1CCN(c2cc(C(F)(F)F)ccc2C2CCN(C(=O)[C@]3(F)CN(C(C)(C)C)C[C@H]3c3ccc(OC)cc3)CC2)CC1.Cl.Cl [Example 231, 1-[2-(1-{[(3R,4R)-1-tert-butyl-3-fluoro-4-(4-methoxyphenyl)pyrrolidin-3-yl]carbonyl}piperidin-4-yl)-5-(trifluoromethyl)phenyl]-N-methylpiperidine-4-carboxamide dihydrochloride]
23 | 10 | 95 | COc1ccc([C@@H]2CN(C(C)(C)C)C[C@@]2(F)C(=O)N2CCC(c3ccc(C(F)(F)F)cc3N3CCC(C(N)=O)CC3)CC2)cc1 [Example 232]
24 | 7.3 | 105 | COc1ccc([C@@H]2CN(C(C)(C)C)C[C@@]2(F)C(=O)N2CCC(c3ccc(C(F)(F)F)cc3N3CCC(C(=O)N(C)C)CC3)CC2)cc1 [Example 234]
25 | 79 | 124 | COc1ccc([C@@H]2CN(C(C)(C)C)C[C@@]2(F)C(=O)N2CCC(c3ccc(C(F)(F)F)cc3N3CCC(C(=O)N4CCCC4)CC3)CC2)cc1 [Example 235]
26 | 5.1 | 92 | COC[C@H]1CN(C(=O)[C@]2(F)CN(C3CCCC3)C[C@H]2c2ccc(OC)cc2)C[C@@H]1c1ccc(C(F)(F)F)cc1N1CCC(C(=O)N(C)C)CC1 [Example 248]
27 | 37 | 149 | COc1ccc([C@@H]2CN(C(C)(C)C)C[C@@]2(F)C(=O)N2CC(c3ccc(C(F)(F)F)cc3N3CCC(C(=O)N(C)C)CC3)C2)cc1 [Example 249]
28 | 3 | 115 | COC[C@H]1CN(C(=O)[C@]2(F)CN([C@H]3CC[C@H](OC)CC3)C[C@H]2c2ccc(OC)cc2)C[C@@H]1c1ccc(C(F)(F)F)cc1N1CCC(C(=O)N(C)C)CC1 [Example 256]
29 | 80 | 112 | COc1ccc([C@@H]2CN(C(C)(C)C)C[C@@]2(F)C(=O)N2CCC(c3ccc(C(F)(F)F)cc3C(N)=O)CC2)cc1 [Example 267]
30 | 6.7 | 73 | COC[C@H]1CN(C(=O)[C@]2(F)CN(C3CCCC3)C[C@H]2c2ccc(OC)cc2)C[C@@H]1c1ccc(C(F)(F)F)cc1N1CCC(C(=O)N(C)CC(=O)O)CC1 [Example 269]
31 | 5.6 | 82 | COC[C@H]1CN(C(=O)[C@]2(F)CN(C3CCCC3)C[C@H]2c2ccc(OC)cc2)C[C@@H]1c1ccc(C(F)(F)F)cc1N1CCC(C(=O)N2CCC[C@@H]2C(=O)O)CC1 [Example 270]

Row | Compound | EC50 [nM] | Human MC1R IA % [%]
32 | COc1ccc([C@@H]2CN(C3CCN(C(CF)CF)CC3)C[C@@]2(F)C(=O)N2CC[C@@H](c3ccc(F)cc3N3CCC(C(=O)O)CC3)C2)cc1 [Example 220] | 2.8 | 75
33 | COc1ccc([C@@H]2CN(C(C)(C)C)C[C@@]2(F)C(=O)N2C[C@H](C(=O)O)[C@@H](c3ccc(C(F)(F)F)cc3N3CCC(C(=O)OC(C)(C)C)CC3)C2)cc1 [Example 223, (3R,4S)-4-{2-[4-(tert-butoxycarbonyl)piperidin-1-yl]-4-(trifluoromethyl)phenyl}-1-{[(3R,4R)-1-tert-butyl-3-fluoro-4-(4-methoxyphenyl)pyrrolidin-3-yl]carbonyl}pyrrolidin-3-carboxylic acid] | 90 | 71
